{"source": "patent US11035008B2", "about": "“Biomarkers for cancer” (BERGENBIO ASA, priority 2015, dated 2021)", "key": {"pAxl(Y779)": {"test_system": "pAxl(Y779)", "assay": "pAxl(Y779) by flow cytometry in MOLM13 cells (Example 2)", "type": "cell-based, human", "procedure": "Staining of Cells for Flow Cytometry, General Protocol: • Live cells were centrifuged at 300 G for 5 minutes, washed once with PBS and centrifuged again. Cells were then fixed in 4% PFA in PBS for 10 minutes at 37° C., and resuspended in PBS. Unless processed immediately, samples were at this point stored in PBS at 4° C. (up to three weeks) or at −80° C. (for long-term storage). If intracellular epitopes were stained, cells were permebealized in 90% MeOH for 30 minutes on ice. Unless processed immediately, samples were also be stored in 90% MeOH at −20° C. for up to two months. • Further staining procedure (permebealized or non-permebealized cells): • Cells were washed 1× in PBS and blocked in blocking buffer; either PBS+0.5% BSA or PBS+1:1000 Octagam (5 mg/ml) for 15 minutes at room temperature. Thereafter, cells were incubated with primary AB at the indicated dilutions in incubation buffer (IB, PBS+0.5% BSA) for 1 hour at room temperature. Cells were then washed 3× with IB and incubated with secondary AB (conjugated to a fluorescent flurophore) at 1:1000 dilution in IB for 30 minutes at room temperature. Finally, cells were washed 3× in IB and resuspended in PBS. Cells were analyzed immediately, or stored for up to 24 hours at 4° C. before analysis. • Analysis of cells was done on a BD LSR Fortessa or a BD C6 Accuri flow cytometer, and further processing was done using FlowJo v.7.6. • All incubation steps (but not storage) were done on a spinning wheel or gentle shaker.\nMOLM13 cells were cultured in starvation medium (RPMI, 0.1% FBS) over night and treated with BGB324 at 3 μM for a total of 40 minutes. […] Cells were co-stained with pAxl(Y779) and tAxl (1H12) antibodies. […] When gating for Axl-expressing cells, we saw that the reduction of pAxl signal was only seen in Axl-positive cells, showing that the pAxl antibody appears to be Axl-specific (see FIG. 3).\npAxl was further assessed pAxl by, in the same experimental conditions, examining for phosphorylation of Akt (see above, and FIG. 2), comparing starvation with non-starved cells, and using MOLM13 wt, shAxl and shLuc (cells were co-stained with antibodies for both pAkt and pAxl). MOLM13shAxl were used as a negative control, to separate between background binding of the antibodies and the “real” pAxl-signal. In cells that were not starved, only a slight inhibition of pAxl after treatment was found (around 20% at 3 μM BGB324 dose)."}, "Axl(Y779)": {"test_system": "Axl(Y779)", "assay": "pAxl(Y779) in blood of healthy volunteers treated ex vivo", "type": "cell-based, human", "conditions": "blood of two healthy volunteers, 1 μM, 30 minutes ex vivo", "procedure": "Staining of Blood for Flow Cytometry, General Protocol: • Human blood from healthy donors was collected in the presence of sodium citrate and mixed with 20 volumes of pre-warmed BD phosflow lyse/fix buffer (diluted to 1× in destilled water), followed by incubation in 37° C. water bath for 10 minutes. Cells were spun at 500 g for 8 minutes and washed once with PBS. • Cells were permebilized by adding 70% MeOH followed by 30 min incubation on ice. Unless processed immediately, samples were at this point stored in MeOH at −20° C. for up to 4 weeks. • Staining of permeabilized cells: • Cells were spun at 600 g, washed twice and resuspended in IB. Cells were aliquoted into volums corresponding to 100 ul collected blood (before dilution), and stained as described above (section two in “Staining of cells for flow cytometry, general protocol”). • All washing and incubation steps were done on a spinning wheel or gentle shaker.\nBlood samples from BGB324-treated individuals were not available, so BGB324-treatment was simulated by incubating fresh unfixed blood samples with 1 μM BGB324 for 30 minutes before fixation. Thereafter, samples were fixed, permebealized, and stained for flow with pAxl and pAkt antibodies to examine whether we could see a response to BGB324-treatment in these biomarkers (see FIG. 7). Phosphatase-treated cells were included as a negative staining control. […]"}}, "note": "Entries after “also recorded” stand apart in the source; their conditions may differ.", "data": [{"smiles": "Nc1nc(Nc2ccc3c(c2)CC[C@@H](N2CCCC2)CC3)nn1-c1cc2c(nn1)-c1ccccc1CCC2", "note": "[BGB324, 1-(6,7-dihydro-5H-benzo[6,7]cyclohepta[1,2-c]pyridazin-3-yl)-N3-((7-(S)-pyrrolidin-1-yl)-6,7,8,9-tetrahydro-5H-benzo[7]annulene-2-yl)-1H-1,2,4-triazole-3,5-diamine]", "values": [{"measurement": "inhibition at 3 µM", "setting": "pAxl(Y779); Homo sapiens, MOLM-13, MOLM13 not starved (wt, shLuc, shAxl same)", "result": "~20", "unit": "%"}, {"measurement": "inhibition of pAxl", "setting": "pAxl(Y779); MOLM13 shAxl, pre-starved, 3 μM", "result": "approximately 20%"}, {"measurement": "pAxl(Y779)", "setting": "pAxl(Y779); MOLM13 starved, 3 μM, 40 minutes", "result": "slight decrease in pAxl; also recorded: modest reduction of pAxl"}, {"measurement": "total reduction of pAxl", "setting": "pAxl(Y779); MOLM13 wt and shLuc, pre-starved, 3 μM", "result": 40, "unit": "%"}, {"measurement": "reduction of pAxl(Y779)", "setting": "Axl(Y779); gated Axl-positive cells", "result": "~20", "unit": "%"}, {"measurement": "reduction of pAxl", "setting": "Axl(Y779); whole live cell population", "result": "around 20%"}]}]}
